Source: patent US7417156B2, “Orally active, antimalarial, anticancer, artemisinin-derived trioxane dimers” (Johns Hopkins University, priority 2002, dated 2008)
Like-named read-outs stand apart in the source and are kept apart here.

Assays:
HS 578T = experiment: NCI 60 cell line panel screen (SRB); type: cell-based, human; settings: for Log10GI50: Breast Cancer, HS 578T; for Log10LC50 / Log10TGI50: HS 578T (Breast Cancer); for Log10LC50: LC50: PG=−50; for Log10TGI50: TGI: PG=0
IGROVI = experiment: NCI 60 cell line panel screen (SRB); type: cell-based, human; settings: for Log10LC50 / Log10TGI50: IGROVI (Ovarian Cancer); for Log10LC50: LC50: PG=−50; for Log10TGI50: TGI: PG=0; for Log10GI50: Ovarian Cancer, IGROVI
HT29 = experiment: NCI 60 cell line panel screen (SRB); type: cell-based, human; settings: for Log10GI50: Colon Cancer, HT29; for Log10LC50 / Log10TGI50: HT29 (Colon Cancer); for Log10LC50: LC50: PG=−50; for Log10TGI50: TGI: PG=0
TK-10 = experiment: NCI 60 cell line panel screen (SRB); type: cell-based, human; settings: for Log10GI50: Renal Cancer, TK-10; for Log10LC50 / Log10TGI50: TK-10 (Renal Cancer); for Log10LC50: LC50: PG=−50; for Log10TGI50: TGI: PG=0
NCI-H322M = type: cell-based
MOLT-4 = settings: for Log10GI50: Leukemia, MOLT-4; for Log10LC50 / Log10TGI50: MOLT-4 (Leukemia); for Log10LC50: LC50: PG=−50; for Log10TGI50: TGI: PG=0
Procedure: Growth Inhibition. […] The screening assay is performed on 96-well microtitre plates. Relatively high initial inoculation densities are used, in order to permit measurement of “time-zero” values and to enhance the screen's ability to detect and provide some differentiation between growth inhibition and cytotoxic response parameters. […] The inoculated microtitre plates are pre-incubated for 24 hours at 37° C. prior to drug additions. The five drug dilutions tested routinely range from 10^−4 to 10^−8 molar. Higher or lower concentration ranges may be selected on a non-routine basis if appropriate solubility and/or prior biological information or other screening data so dictate. Duplicate wells are prepared for all concentrations, (concentration is often denoted by placing brackets around a number); “time-zero” and “no drug” controls are also provided for each test. The minimum amount of compound required for a one-time evaluation in the routine screen can be calculated from the knowledge that each test requires a total of approximately 40 ml (0.04 liter) of cell culture medium containing the highest desired drug concentration. […] After a 48 hour incubation (37° C.) with the test compound, the cells are fixed in situ to the bottoms of the microtitre wells by addition of 50 μl of either 50% trichloroacetic acid (for adherent cell lines) or 80% trichloroacetic acid (for settled cell suspension lines), followed by incubation for 60 minutes at 4° C. The cellular protein in each well is assayed using a sulforhodamine B (SRB) stain procedure. Briefly, after discarding the supernatants, the microtitre plates are washed 5 times with deionized water and air-dried. […] Unbound SRB is removed by washing 5 times with 1% acetic acid. […] SRB is a bright pink anionic dye which, in dilute acetic acid, binds electrostatically to the basic amino acids of TCA-fixed cells. Cryopreserved master stocks of all the lines are maintained, and cultures used for screening are replaced from the master stock after no more than twenty passages in the screening laboratory. The cell line panel consists of 60 lines, organized into nine, disease-related subpanels including leukemia, non-small-cell lung cancer, colon, CNS, melanoma, ovarian, renal, prostate and breast cancers.
At this value the increase from time tzero, in the number or mass of cells in the test well is only 50% as much as the corresponding increase in the control well during this period of the experiment, see Table III. A drug effect of this intensity is interpreted as primary growth inhibition.
At this value the number or mass of cells in the well at the end of the experiment equals the number or mass of cells in the well at time tzero, see Table IV. A drug effect of this intensity is regarded as cytostasis.
At this value, the number or mass of cells in the test well at the end of the experiment is half that at time tzero, see Table V. This is interpreted as cytotoxicity.
Dose response curves, shown in the above mentioned Figures, are obtained by exposing various cancer cell lines to compounds having a known concentration ([log10M]), as discussed in detail above, and then plotting the percentage growth of each cell line for each concentration. […] Percentage growth is determined by dividing the number or mass of cells in the test well by the number or mass of cells in a control well. […] As discussed previously, the five drug dilutions routinely tested range from 10^−4 to […].

OVCAR-5 = experiment: NCI 60 cell line panel screen (SRB); type: cell-based, human; settings: for Log10LC50 / Log10TGI50: OVCAR-5 (Ovarian Cancer); for Log10LC50: LC50: PG=−50; for Log10TGI50: TGI: PG=0; for Log10GI50: Ovarian Cancer, OVCAR-5
A549/ATCC = experiment: NCI 60 cell line panel screen (SRB); type: cell-based, human; settings: for Log10LC50 / Log10TGI50: A549/ATCC (Non-Small Cell Lung Cancer); for Log10LC50: LC50: PG=−50; for Log10TGI50: TGI: PG=0; for Log10GI50: Non-Small Cell Lung Cancer, A549/ATCC
MDA-MB231/ATCC = experiment: NCI 60 cell line panel screen (SRB); type: cell-based, human; settings: for Log10GI50: Breast Cancer, MDA-MB231/ATCC; for Log10LC50 / Log10TGI50: MDA-MB231/ATCC (Breast Cancer); for Log10LC50: LC50: PG=−50; for Log10TGI50: TGI: PG=0
SF-539 = experiment: NCI 60 cell line panel screen (SRB); type: cell-based, human
MDA-MB-435 = experiment: NCI 60 cell line panel screen (SRB); type: cell-based, human; settings: MDA-MB-435 (Breast Cancer)
UACC-257 = experiment: NCI 60 cell line panel screen (SRB); type: cell-based, human; settings: for Log10GI50: Melanoma, UACC-257; for Log10LC50 / Log10TGI50: UACC-257 (Melanoma); for Log10LC50: LC50: PG=−50; for Log10TGI50: TGI: PG=0
T-47D = experiment: NCI 60 cell line panel screen (SRB); type: cell-based, human; settings: for Log10LC50 / Log10TGI50: T-47D (Breast Cancer); for Log10LC50: LC50: PG=−50; for Log10TGI50: TGI: PG=0
UO-31 = experiment: NCI 60 cell line panel screen (SRB); type: cell-based, human; settings: for Log10GI50: Renal Cancer, UO-31; for Log10LC50 / Log10TGI50: UO-31 (Renal Cancer); for Log10LC50: LC50: PG=−50; for Log10TGI50: TGI: PG=0
NCI-H522 = experiment: NCI 60 cell line panel screen (SRB); type: cell-based, human
786-0 = experiment: NCI 60 cell line panel screen (SRB); type: cell-based, human; settings: for Log10LC50 / Log10TGI50: 786-0 (Renal Cancer); for Log10LC50: LC50: PG=−50; for Log10TGI50: TGI: PG=0; for Log10GI50: Renal Cancer, 786-0
EKVX = experiment: NCI 60 cell line panel screen (SRB); type: cell-based, human

CC1CCC2C(C)C(CC(O)(CO)CC3OC4OC5(C)CCC6C(C)CCC(C3C)C46OO5)OC3OC4(C)CCC1C32OO4 (stereo not drawn) [Compound 5, bis-trioxane vicinal diol] was tested, and the Log10GI50 (HS 578T) was −4.72, the Log10LC50 (HS 578T) was >−4.00 log10M and the Log10TGI50 (HS 578T) was −4.08 log10M. For the same molecule, the Log10LC50 (IGROVI) was −4.17 log10M, the Log10TGI50 (IGROVI) was −4.57 log10M and the Log10GI50 (IGROVI) was −4.97. The Log10GI50 (HT29) was <−8.00, the Log10LC50 (HT29) was >−4.00 log10M and the Log10TGI50 (HT29) was >−4.00 log10M. It also gave a Log10GI50 (TK-10) of −4.91, a Log10LC50 (TK-10) of −4.06 log10M and a Log10TGI50 (TK-10) of −4.49 log10M. For the same molecule, the Log10LC50 (NCI-H322M; NCI-H322M (Non-Small Cell Lung Cancer), LC50: PG=−50) was −4.16 log10M, the Log10TGI50 (NCI-H322M; NCI-H322M (Non-Small Cell Lung Cancer), TGI: PG=0) was −4.44 log10M and the Log10GI50 (NCI-H322M; Non-Small Cell Lung Cancer, NCI-H322M) was −4.71. For the same molecule, the “concentration for cytotoxicity (percentage growth −50)” value (MOLT-4) was “greater than 10^−4 M”, the Log10GI50 (MOLT-4) was <−8.00 and the Log10LC50 (MOLT-4) was >−4.00 log10M. The Log10TGI50 (MOLT-4) was >−4.00 log10M, the Log10LC50 (OVCAR-5) was >−4.00 log10M and the Log10TGI50 (OVCAR-5) was −4.33 log10M. It also gave a Log10GI50 (OVCAR-5) of −4.78, a Log10LC50 (A549/ATCC) of −4.11 log10M and a Log10TGI50 (A549/ATCC) of −4.82 log10M. The Log10GI50 (A549/ATCC) was −7.59, the Log10GI50 (MDA-MB231/ATCC) was −4.99 and the Log10LC50 (MDA-MB231/ATCC) was −4.15 log10M. For the same molecule, the Log10TGI50 (MDA-MB231/ATCC) was −4.57 log10M, the Log10GI50 (SF-539; CNS Cancer, SF-539) was −4.86 and the Log10LC50 (SF-539; SF-539 (CNS Cancer), LC50: PG=−50) was >−4.00 log10M. It also gave a Log10TGI50 (SF-539; SF-539 (CNS Cancer), TGI: PG=0) of −4.41 log10M, a Log10LC50 (MDA-MB-435; LC50: PG=−50) of −4.09 log10M and a Log10TGI50 (MDA-MB-435; TGI: PG=0) of −4.54 log10M. For the same molecule, the Log10GI50 (UACC-257) was <−8.00, the Log10LC50 (UACC-257) was −4.36 log10M and the Log10TGI50 (UACC-257) was −4.90 log10M. For the same molecule, the Log10GI50 (T-47D; Breast Cancer, T-47D) was −7.23, the Log10LC50 (T-47D) was >−4.00 log10M and the Log10TGI50 (T-47D) was −4.48 log10M. For the same molecule, the Log10GI50 (UO-31) was −7.38, the Log10LC50 (UO-31) was −4.26 log10M and the Log10TGI50 (UO-31) was −4.68 log10M. The Log10TGI50 (NCI-H522; NCI-H522 (Non-Small Cell Lung Cancer), TGI: PG=0) was −4.59 log10M, the Log10LC50 (NCI-H522; NCI-H-522 (Non-Small Cell Lung Cancer), LC50: PG=−50) was −4.17 log10M and the Log10GI50 (NCI-H522; Non-Small Cell Lung Cancer, NCI-H522) was −7.33. The Log10LC50 (786-0) was >−4.00 log10M, the Log10TGI50 (786-0) was −4.36 log10M and the Log10GI50 (786-0) was −4.87.

For C[C@@H]1CC[C@H]2[C@@H](C)C(=O)O[C@@H]3O[C@]4(C)CC[C@@H]1[C@]32OO4 [Artemisinin], the Log10GI50 (HS 578T) was >−4.00, the Log10LC50 (HS 578T) was >−4.00 log10M and the Log10TGI50 (HS 578T) was >−4.00 log10M. The Log10LC50 (IGROVI) was >−4.00 log10M, the Log10TGI50 (IGROVI) was >−4.00 log10M and the Log10GI50 (IGROVI) was −4.31. The Log10GI50 (HT29) was >−4.00, the Log10LC50 (HT29) was >−4.00 log10M and the Log10TGI50 (HT29) was >−4.00 log10M. For the same molecule, the Log10GI50 (TK-10) was >−4.00, the Log10LC50 (TK-10) was >−4.00 log10M and the Log10TGI50 (TK-10) was >−4.00 log10M. The Log10GI50 (MOLT-4) was −4.73, the Log10LC50 (MOLT-4) was >−4.00 log10M and the Log10TGI50 (MOLT-4) was >−4.00 log10M. For the same molecule, the “concentration for cytotoxicity (percentage growth −50)” value (MOLT-4; human, 48 h) was “greater than 10^−4 M”, the Log10LC50 (EKVX; EKVX (Non-Small Cell Lung Cancer), LC50: PG=−50) was >−4.00 log10M and the Log10TGI50 (EKVX; EKVX (Non-Small Cell Lung Cancer), TGI: PG=0) was >−4.00 log10M. The Log10GI50 (EKVX; Non-Small Cell Lung Cancer, EKVX) was >−4.00, the Log10LC50 (OVCAR-5) was >−4.00 log10M and the Log10TGI50 (OVCAR-5) was >−4.00 log10M. For the same molecule, the Log10GI50 (OVCAR-5) was >−4.00, the Log10LC50 (A549/ATCC) was >−4.00 log10M and the Log10TGI50 (A549/ATCC) was >−4.00 log10M. For the same molecule, the Log10GI50 (A549/ATCC) was −4.17, the Log10GI50 (MDA-MB231/ATCC) was −4.20 and the Log10LC50 (MDA-MB231/ATCC) was >−4.00 log10M. The Log10TGI50 (MDA-MB231/ATCC) was >−4.00 log10M, the Log10GI50 (UACC-257) was >−4.00 and the Log10LC50 (UACC-257) was >−4.00 log10M. For the same molecule, the Log10TGI50 (UACC-257) was >−4.00 log10M, the Log10LC50 (T-47D) was >−4.00 log10M and the Log10TGI50 (T-47D) was >−4.00 log10M. For the same molecule, the Log10GI50 (UO-31) was −4.06, the Log10LC50 (UO-31) was >−4.00 log10M and the Log10TGI50 (UO-31) was >−4.00 log10M. The Log10LC50 (786-0) was >−4.00 log10M, the Log10TGI50 (786-0) was >−4.00 log10M and the Log10GI50 (786-0) was >−4.00.
